The record followed here is patent US20200069691A1, “HETEROCYCLIC COMPOUNDS AS HIV PROTEASE INHIBITORS” (Merck Sharp & Dohme Corp., priority 2016, published 2020).

As a reminder, the IC50 is the concentration that gives 50% inhibition.

Molecules are shown by their SMILES.

For the experiment, the target named is T1, wild-type HIV-1 protease (Human immunodeficiency virus type 1 group M subtype B, UniProt P04585).
T1 construct: Escherichia coli expressed wild-type HIV-1 protease protein
The experiment in a line: Assay for Inhibition of Microbial Expressed HIV Protease (peptide substrate cleavage, LC-MS/MS readout). In kind it is biochemical. To be noted: E. coli expressed wild-type HIV-1 protease, mean of at least two independent experiments, read-out: HIV Pr Enzyme HIV1 PR IC50. Put shortly:
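E. coli-expressed wild-type HIV-1 protease ([…]) was preincubated with inhibitor 30 min at room temperature in pH 5.5 acetate buffer (100 mM NaCl, 0.1% BSA). Then 400 μM octapeptide substrate was added and reacted 1 h at 30 °C; inhibition came from LC-MS/MS product peak areas, mean of ≥2 experiments.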
As for `N#Cc1ncc2c(n1)CN(C(=O)c1cc(CN3C(=N)NC(c4ccc(F)cc4)(c4ccc(F)cc4)C3=O)ccc1C(F)(F)F)C2` [Compound 134, 6-{[5-{[4,4-bis(4-fluorophenyl)-2-imino-5-oxoimidazolidin-1-yl]methyl}-2-(trifluoromethyl)-phenyl]carbonyl}-6,7-dihydro-5H-pyrrolo[3,4-d] pyrimidine-2-carbonitrile], the IC50 was 0.00108 µM.

As to `N=C1NC(CCC2CC2)(c2ccc(-c3cccnc3)cc2)C(=O)N1Cc1ccc(C(F)(F)F)c(C(=O)N2Cc3nccnc3C2)c1` (stereo not drawn) [Compound 76, 5-(2-cyclopropylethyl)-3-[3-(5,7-dihydro-6H-pyrrolo[3,4-b]pyrazin-6-ylcarbonyl)-4-(trifluoromethyl-)benzyl]-2-imino-5-(4-pyridin-3-ylphenyl) imidazolidin-4-one], the IC50 worked out at 0.0104 µM.

`N=C1NC(c2ccccc2)(c2ccccc2)C(=O)N1Cc1cccc(C(=O)N2CCn3nc(C(F)(F)F)nc3C2)c1` [Compound 343, 2-imino-5,5-diphenyl-3-(3-{[2-(trifluoromethyl)-5,6-dihydro-[1,2,4]triazolo[1,5-a]pyrazin-7(8H)-yl]carbonyl}benzyl) imidazolidin-4-one]: the IC50 worked out at 0.0798 µM.

Consider `COc1cc(-c2ncc3c(n2)CN(C(=O)c2cc(CN4C(=N)N[C@](CCCC(F)(F)F)(c5ccc(F)cc5)C4=O)ccc2C(F)(F)F)C3)ccn1` [Compound 52, (5R)-5-(4-fluorophenyl)-2-imino-3-[3-{[2-(2-methoxypyridin-4-yl)-5,7-dihydro-6H-pyrrolo[3,4-d]pyrimidin-6-yl]carbonyl}-4-(trifluoromethyl)benzyl]-5-(4,4,4-trifluorobutyl)imidazolidin-4-one], for which the IC50 stood at 0.00558 µM.

Take `N=C1NC(c2ccccc2)(c2ccccc2)C(=O)N1Cc1ccc(F)c(C(=O)N2Cc3nccnc3C2)c1` [Compound 379, 3-[3-(5,7-dihydro-6H-pyrrolo[3,4-b]pyrazin-6-ylcarbonyl)-4-fluorobenzyl]-2-imino-5,5-diphenylimidazolidin-4-one]: the IC50 was determined as 0.0107 µM.

For `N=C1N[C@](CCCC(F)(F)F)(c2ccc(F)cc2)C(=O)N1Cc1ccc(C(F)(F)F)c(C(=O)N2Cc3cnc(NC4CCC4)nc3C2)c1` [Compound 85, (5R)-3-[3-{[2-(cyclobutylamino)-5,7-dihydro-6H-pyrrolo[3,4-d]pyrimidin-6-yl]carbonyl}-4-(trifluoromethyl)benzyl]-5-(4-fluorophenyl)-2-imino-5-(4,4,4-trifluorobutyl)imidazolidin-4-one], the IC50 turned out to be 0.0144 µM.

Take `CN(C)c1ccc(-c2ncc3c(n2)CN(C(=O)c2cc(CN4C(=N)N[C@](CCCC(F)(F)F)(c5ccc(F)cc5)C4=O)ccc2C(F)(F)F)C3)cn1` [Compound 16, (5R)-3-[3-({2-[6-(dimethylamino)pyridin-3-yl]-5,7-dihydro-6H-pyrrolo[3,4-d]pyrimidin-6-yl}carbonyl)-4-(trifluoromethyl)benzyl]-5-(4-fluorophenyl)-2-imino-5-(4,4,4-trifluorobutyl)imidazolidin-4-one]: the IC50 worked out at 0.00198 µM.

In the case of `CC(C)CCC1(c2ccccc2)NC(=N)N(Cc2cccc(C(=O)N3CCC(n4c(=O)[nH]c5ccccc54)CC3)c2)C1=O` (stereo not drawn) [Compound 314, 1-{1-[(3-{[2-imino-4-(3-methylbutyl)-5-oxo-4-phenylimidazolidin-1-yl]methyl}phenyl)carbonyl]piperidin-4-yl}-1,3-dihydro-2H-benzimidazol-2-one], the IC50 is 0.0521 µM.

As to `COc1ccc2c(c1)CCN(C(=O)c1cc(CN3C(=N)NC(c4ccc(F)cc4)(c4ccc(F)cc4)C3=O)ccc1C(F)(F)F)CC2` [Compound 165, 5.5-bis(4-fluorophenyl)-2-imino-3-{3-[(7-methoxy-1,2,4,5-tetrahydro-3H-3-benzazepin-3-yl)carbonyl]-4-(trifluoromethyl)benzyl} imidazolidin-4-one], the IC50 worked out at 0.0341 µM.

Regarding `N=C1NC(CCC2CC2)(c2cccc(C(F)(F)F)c2)C(=O)N1Cc1ccc(C(F)(F)F)c(C(=O)N2Cc3nccnc3C2)c1` (stereo not drawn) [Compound 75, 5-(2-cyclopropylethyl)-3-[3-(5,7-dihydro-6H-pyrrolo[3,4-b]pyrazin-6-ylcarbonyl)-4-(trifluoromethyl)-benzyl]-2-imino-5-[3-(trifluoro-methyl)phenyl]-imidazolidin-4-one], the IC50 is 0.0102 µM.

Turning to `COc1ccc(CN2C(=N)NC(c3ccccc3)(c3ccccc3)C2=O)cc1C(=O)N1Cc2cncnc2C1` [Compound 387, 3-[3-(5,7-dihydro-6H-pyrrolo[3,4-d]pyrimidin-6-ylcarbonyl)-4-methoxybenzyl]-2-imino-5,5-diphenylimidazolidin-4-one], the IC50 was 0.0322 µM.

Regarding `N=C1NC(c2ccc(F)cc2)(c2ccc(F)cc2)C(=O)N1Cc1cncc(C(=O)N2CCN(C(=O)OCc3ccccc3)CC2)c1` [Compound 395, benzyl 4-[(5-{[4,4-bis(4-fluorophenyl)-2-imino-5-oxoimidazolidin-1-yl]methyl}pyridin-3-yl)carbonyllpiperazine-1-carboxylate], the IC50 is 0.0974 µM.

On to `N=C1NC(c2ccccc2)(c2ccccc2)C(=O)N1Cc1cccc(C(=O)N2CCc3ccncc3C2)c1` [Compound 313, 3-[3-(3,4-dihydro-2,7-naphthyridin-2(1H)-ylcarbonyl)benzyl]-2-imino-5,5-diphenylimidazolidin-4-one], for which the IC50 was found to be 0.0521 µM.

As for `CC(C)CCC1(c2ccccc2)NC(=N)N(Cc2cccc(C(=O)N3Cc4nccnc4C3)c2)C1=O` (stereo not drawn) [Compound 193, 3-[3-(5,7-dihydro-6H-pyrrolo[3,4-b]pyrazin-6-ylcarbonyl)benzyl]-2-imino-5-(3-methylbutyl)-5-phenylimidazolidin-4-one], the IC50 amounted to 0.00489 µM.

For `N=C1N[C@](CCCC(F)(F)F)(c2ccc(F)cc2)C(=O)N1Cc1ccc(C(F)(F)F)c(C(=O)N2CCN(CC(F)(F)F)CC2)c1` [Compound 127, (5R)-5-(4-fluorophenyl)-2-imino-5-(4,4,4-trifluorobutyl)-3-[3-{[4-(2,2,2-trifluoroethyl)piperazin-1-yl]carbonyl}-4-(trifluoromethyl)-benzyl]imidazolidin-4-one], the IC50 was 0.0651 µM.

In the case of `CS(=O)(=O)CCn1cc(-c2ncc3c(n2)CN(C(=O)c2cc(CN4C(=N)N[C@](CCCC(F)(F)F)(c5ccc(F)cc5)C4=O)ccc2C(F)(F)F)C3)cn1` [Compound 17, (5R)-5-(4-fluorophenyl)-2-imino-3-{3-[(2-{1-[2-(methylsulfonyl)ethyl]-1H-pyrazol-4-yl}-5,7-dihydro-6H-pyrrolo[3,4-d]pyrimidin-6-yl)carbonyl]-4-(trifluoromethyl)-benzyl}-5-(4,4,4-trifluorobutyl)-imidazolidin-4-one], the IC50 turned out to be 0.00199 µM.

Regarding `CC(C)CC1(c2ccccc2)NC(=N)N(Cc2cccc(C(=O)N3CCN(c4ccccc4Cl)CC3)c2)C1=O` (stereo not drawn) [Compound 315, 3-(3-{[4-(2-chlorophenyl)piperazin-1-yl]carbonyl}benzyl)-2-imino-5-(2-methylpropyl)-5-phenylimidazolidin-4-one], the IC50 was found to be 0.0523 µM.

In the case of `CC(=O)NCc1cc2c(o1)CCN(C(=O)c1cc(CN3C(=N)NC(CCC(C)C)(c4ccc(F)cc4)C3=O)ccc1C(F)(F)F)C2` (stereo not drawn) [Compound 178, N-[(5-{[5-{[4-(4-fluorophenyl)-2-imino-4-(3-methylbutyl)-5-oxoimidazolidin-1-yl]methyl}-2-(trifluoromethyl)phenyl]carbonyl}-4,5,6,7-tetrahydrofuro[3,2-c]pyridin-2-yl)methyl]acetamide], the IC50 was found to be 0.0716 µM.

`CC(C)CC1(c2ccccc2)NC(=N)N(Cc2cccc(C(=O)N3CCc4ccccc4C3)c2)C1=O` (stereo not drawn) [Compound 318, 3-[3-(3,4-dihydroisoquinolin-2(1H)-ylcarbonyl)benzyl]-2-imino-5-(2-methyl-propyl)-5-phenylimidazolidin-4-one]: the IC50 worked out at 0.0562 µM.

Turning to `C[C@H](c1cccc(C(=O)N2Cc3cnn(C)c3C2)c1)N1C(=N)NC(c2ccc(F)cc2)(c2ccc(F)cc2)C1=O` [Compound 202, 5,5-bis(4-fluorophenyl)-2-imino-3-[(1R)-1-{3-[(1-methyl-4,6-dihydropyrrolo [3,4-c]pyrazol-5(1H)-yl)carbonyl]phenyl}-ethyl]imidazolidin-4-one], the IC50 is 0.00654 µM.

On to `CC(C)CC[C@]1(c2ccccc2)NC(=N)N([C@H](C)c2cccc(C(=O)N3CCN(C)C(=O)C3)c2)C1=O` [Compound 272, 4-[(3-{(1R)-1-[2-imino-4-(3-methylbutyl)-5-oxo-4-phenylimidazolidin-1-yl]ethyl}phenyl)carbonyl]-1-methylpiperazin-2-one], for which the IC50 is 0.0283 µM.

As to `N=C1N[C@](CCCC(F)(F)F)(c2ccc(F)cc2)C(=O)N1[C@@H]1CCCc2ccc(C(=O)N3Cc4nccnc4C3)cc21` [Compound 116, (5R)-3-[(1R)-7-(5,7-dihydro-6H-pyrrolo[3,4-b]pyrazin-6-ylcarbonyl)-1,2,3,4-tetrahydro-naphthalen-1-yl]-5-(4-fluoro-phenyl)-2-imino-5-(4,4,4-trifluorobutyl)imidazolidin-4-one], the IC50 amounted to 0.0378 µM.

For the compound `CC(C)OCC(c1ccc(C(F)(F)F)c(C(=O)N2Cc3nccnc3C2)c1)N1C(=N)N[C@](CCC2CC2)(c2ccc(F)cc2)C1=O` (stereo partly drawn) [Compound 38, (5R)-5-(2-cyclopropylethyl)-3-{1-[3-(5,7-dihydro-6H-pyrrolo[3,4-b]pyrazin-6-ylcarbonyl)-4-(trifluoromethyl)phenyl]-2-(1-methylethoxy)ethyl}-5-(4-fluorophenyl)-2-iminoimidazolidin-4-one], the IC50 was found to be 0.00403 µM.

On to `CC(C)CC1(c2ccccc2)NC(=N)N(Cc2ccc(Cl)c(C(=O)N3Cc4cncnc4C3)c2)C1=O` (stereo not drawn) [Compound 373, 3-[4-chloro-3-(5,7-dihydro-6H-pyrrolo[3,4-d]pyrimidin-6-ylcarbonyl)benzyl]-2-imino-5-(2-methylpropyl)-5-phenylimidazolidin-4-one], for which the IC50 was determined as 0.00693 µM.
